# Assay results from patent US10624897B2, “Chlorobenzene substituted azaaryl compounds” (TAIPEI MEDICAL UNIVERSITY, priority 2015, dated 2020).
# How the values were obtained:
# Hep3B = assay: MTT assay, cell viability; type: cell-based; conditions: 72 hours
# Protocol: (§1) Cells were cultured in RPMI-1640 (RT-112, KMS-11, SNU-16, HT-29, HCT-116, NCI—H520, Hep3B, PLC/PRF/5, HL-60, MOLT-4) and DMEM (HepG2, MCF-7, MDA-MB-231) with 10% FBS (v/v) and Penicillin/Streptomycin (100 U/ml). FU-DDLS-1 cell line was maintained in DMEM:F12 medium with 10% FBS. LiSa-2 cell line was maintained in IMDM/RPMI-1640 in a 4:1 ratio supplemented with 10% FBS, 2 mmol/L L-glutamine, and 0.1 mg/mL gentamicin. Human umbilical vein endothelial cells (HUVECs) were grown to confluence on 1% collagen, and maintained in 90% Medium 199 with 25 U/ml heparin, 30 μg/ml endothelial cell growth supplement (ECGS) adjusted to contain 1.5 g/L sodium bicarbonate, 10% FBS and Penicillin/Streptomycin (100 U/ml) Cultures were maintained at 37° C. in a humidified atmosphere of 5% CO2/95% air.
# (§2) Cells were seeded in 96-well plates (5,000 cells/well) and incubated overnight for attachment, and were then treated with indicated agents in 10% FBS-supplemented medium for 72 hours. The medium was replaced with MTT (0.5 mg/mL) at 37° C. for 1 hours. After removal of medium, the cells were lysed with 100 μL per well dimethyl sulfoxide (DMSO), and absorbance at 550 nm was measured with microplate reader. The relative cell viability (%) was expressed as a percentage relative to a DMSO control cells.
# PLC/PRF/5 = assay: MTT assay, cell viability; type: cell-based; conditions: 72 hours
# Protocol: as §1, §2
# RT-112 = assay: MTT assay, cell viability; type: cell-based; conditions: 72 hours
# Protocol: as §1, §2
# SNU-16 = assay: MTT assay, cell viability; type: cell-based; conditions: 72 hours
# Protocol: as §1, §2
# FUDDLS = assay: MTT assay, cell viability; type: cell-based; conditions: Sarcoma, 72 hours, read-out: IC50 (μM, Mean ± SD)
# Protocol: as §1, §2
# HCT-116 = assay: MTT assay, cell viability; type: cell-based; conditions: Homo sapiens; HCT-116, Colorectal, 72 hours; read-out: IC50 (μM, Mean ± SD)
# Protocol: as §1, §2
# HT-29 = assay: MTT assay, cell viability; type: cell-based; conditions: Homo sapiens; HT-29, Colorectal, 72 hours; read-out: IC50 (μM, Mean ± SD)
# Protocol: as §1, §2
# HepG2 = assay: MTT assay, cell viability; type: cell-based; conditions: Homo sapiens; HepG2, Liver, 72 hours; read-out: IC50 (μM, Mean ± SD)
# Protocol: as §1, §2
# KMS-11 = assay: MTT assay, cell viability; type: cell-based; conditions: Homo sapiens; KMS-11, Myeloma, 72 hours; read-out: IC50 (μM, Mean ± SD)
# Protocol: as §1, §2
# LISA-2 = assay: MTT assay, cell viability; type: cell-based; conditions: LISA-2, Sarcoma, 72 hours; read-out: IC50 (μM, Mean ± SD)
# Protocol: as §1, §2
# MCF-7 = assay: MTT assay, cell viability; type: cell-based; conditions: Homo sapiens, MCF7; MCF-7, Breast, 72 hours; read-out: IC50 (μM, Mean ± SD)
# Protocol: as §1, §2
# MDA-MB-231 = assay: MTT assay, cell viability; type: cell-based; conditions: Homo sapiens; MDA-MB-231, Breast, 72 hours; read-out: IC50 (μM, Mean ± SD)
# Protocol: as §1, §2
# RT-112 cells = assay: Cell cycle distribution by flow cytometry; type: cell-based; conditions: FIG. 3A; for accumulation of the sub-G1 phase (apoptotic cell death): 48 h to 72 h
# RT-112 tumor xenografts = conditions: 5 mg/kg/wk, i.p., nude mice
# Protocol: Eight-week-old female athymic nude mice were group-housed in the TMU Laboratory Animal Center (Taipei, Taiwan) under conditions of constant photoperiod (12 h light/12 h dark at 21-0023° C. and 60-85% humidity) with ad libitum access to sterilized food and water. […] Tumors were measured weekly using calipers. Tumor volume (mm3) was calculated from w2×½ (w=width, 1=length in mm of the tumor).
SMILES,Viability (% of control cells) Hep3B (5 uM) Mean (Hep3B),Viability (% of control cells) PLC5 (5 uM) Mean (PLC/PRF/5),Viability (% of control cells) RT-112 (5 uM) Mean (RT-112),Viability (% of control cells) RT-112 (10 uM) Mean (RT-112),Viability (% of control cells) SNU-16 (5 uM) Mean (SNU-16),other results
"CCN1CCN(c2ccc(Nc3nc(Cl)nc(N(C)C(=O)Nc4c(Cl)c(OC)c(Cl)c(OC)c4Cl)n3)cc2)CC1 [MPT0L183, 1-(4-chloro-6-((4-(4-ethylpiperazin-1-yl)phenyl)amino)-1,3,5-triazin-2-yl)-1-methyl-3-(2,4,6-trichloro-3,5-dimethoxyphenyl)urea]",43.3 % of control cells,45.0 % of control cells,15.8 % of control cells,3.4 % of control cells,28.2 % of control cells,–
"COc1c(Cl)c(NC(=O)N(C)c2cc(-c3ccc(Cl)cc3)ncn2)c(Cl)c(OC)c1Cl [MPT0L156, 1-(6-(4-chlorophenyl)pyrimidin-4-yl)-1-methyl-3-(2,4,6-trichloro-3,5-dimethoxyphenyl)urea]",54.3 % of control cells,44.4 % of control cells,98.3 % of control cells,34.8 % of control cells,76.7 % of control cells,–
"COc1c(Cl)c(NC(=O)N(C)c2cc(-c3ccccc3)ncn2)c(Cl)c(OC)c1Cl [MPT0L149, 1-methyl-1-(6-phenylpyrimidin-4-yl)-3-(2,4,6-trichloro-3,5-dimethoxyphenyl)urea]",–,–,–,82.3 % of control cells,–,–
"COc1c(Cl)c(NC(=O)N(C)c2cc(-c3cccc(C#N)c3)ncn2)c(Cl)c(OC)c1Cl [MPT0L150, 1-(6-(3-cyanophenyl)pyrimidin-4-yl)-1-methyl-3-(2,4,6-trichloro-3,5-dimethoxyphenyl)urea]",–,–,–,75.0 % of control cells,–,–
"COc1c(Cl)c(NC(=O)N(C)c2cc(-c3ccco3)ncn2)c(Cl)c(OC)c1Cl [MPT0L154, 1-(6-(furan-2-yl)pyrimidin-4-yl)-1-methyl-3-(2,4,6-trichloro-3,5-dimethoxyphenyl)urea]",–,–,–,76.1 % of control cells,–,–
"CCN1CCN(c2ccc(Nc3cc(N(C)C(=O)Nc4c(Cl)c(OC)cc(OC)c4Cl)ncn3)cc2)CC1 [BGJ-398, 3-(2,6-Dichloro-3,5-dimethoxy-phenyl)-1-{6-[4-(4-ethylpiperazin-1-yl)-phenylamino]-pyrimidin-4-yl}-1-methyl-urea]",–,–,–,–,–,"IC50 (FUDDLS): 1.45 ± 0.17 µM; IC50 (HCT-116): 3.98 ± 0.06 µM; IC50 (HT-29): 4.77 ± 0.14 µM; IC50 (Hep3B; Homo sapiens, Liver, read-out: IC50 (μM, Mean ± SD)): 0.72 ± 0.12 µM; IC50 (HepG2): 5.84 ± 0.25 µM; IC50 (KMS-11): 0.2 ± 0.05 µM; IC50 (LISA-2): 6.13 ± 0.06 µM; IC50 (MCF-7): 5.07 ± 0.63 µM; IC50 (MDA-MB-231): 4.27 ± 0.83 µM; IC50 (PLC/PRF/5; Homo sapiens, PLC/PRF/5, Liver, read-out: IC50 (μM, Mean ± SD)): 2.94 ± 0.11 µM; IC50 (RT-112; Homo sapiens, RT-112, Bladder, read-out: IC50 (μM, Mean ± SD)): 1.7 ± 0.05 µM; G0/G1 cell cycle arrest (RT-112 cells; 24 h): also observed; accumulation of the sub-G1 phase (apoptotic cell death) (RT-112 cells): induced pronounced apoptosis"
"COc1c(Cl)c(NC(=O)N(C)c2cc(-c3cccc([N+](=O)[O-])c3)ncn2)c(Cl)c(OC)c1Cl [MPT0L151, 1-methyl-1-(6-(3-nitrophenyl)pyrimidin-4-yl)-3-(2,4,6-trichloro-3,5-dimethoxyphenyl)urea]",–,–,–,63.8 % of control cells,–,–
"COc1c(Cl)c(NC(=O)N(C)c2cc(-c3ccc(C#N)cc3)ncn2)c(Cl)c(OC)c1Cl [MPT0L152, 1-(6-(4-cyanophenyl)pyrimidin-4-yl)-1-methyl-3-(2,4,6-trichloro-3,5-dimethoxyphenyl)urea]",–,–,–,55.3 % of control cells,–,–
"COc1c(Cl)c(NC(=O)N(C)c2cc(-c3ccc(F)cc3)ncn2)c(Cl)c(OC)c1Cl [MPT0L155, 1-(6-(4-fluorophenyl)pyrimidin-4-yl)-1-methyl-3-(2,4,6-trichloro-3,5-dimethoxyphenyl)urea]",72.8 % of control cells,55.3 % of control cells,92.6 % of control cells,44.4 % of control cells,80.5 % of control cells,–
"N.N.[Cl][Pt][Cl] [Cisplatin, reference compound]",–,–,–,–,–,Tumor growth inhibition (%) (RT-112 tumor xenografts): 56.3%
CC(=O)O[C@H]1C(=O)[C@@]2(C)[C@H]([C@H](OC(=O)c3ccccc3)[C@]3(O)C[C@H](OC(=O)[C@H](O)[C@@H](NC(=O)c4ccccc4)c4ccccc4)C(C)=C1C3(C)C)[C@]1(OC(C)=O)CO[C@@H]1C[C@@H]2O [paclitaxel],–,–,–,–,–,accumulation of the sub-G1 phase (apoptotic cell death) (RT-112 cells): induced pronounced apoptosis
"COc1c(Cl)c(NC(=O)N(C)c2cc(-c3cccnc3)ncn2)c(Cl)c(OC)c1Cl [MPT0L147, 1-methyl-1-(6-(pyridin-3-yl)pyrimidin-4-yl)-3-(2,4,6-trichloro-3,5-dimethoxyphenyl)urea]",–,–,–,85.0 % of control cells,–,–
"COc1c(Cl)c(NC(=O)N(C)c2cc(-c3ccncc3)ncn2)c(Cl)c(OC)c1Cl [MPT0L148, 1-methyl-1-(6-(pyridin-4-yl)pyrimidin-4-yl)-3-(2,4,6-trichloro-3,5-dimethoxyphenyl)urea]",–,–,–,89.3 % of control cells,–,–
"CCN1CCN(c2ccc(Nc3cc(N(C)C(=O)Nc4c(Cl)c(OC)c(Cl)c(OC)c4Cl)nc(-c4ccccc4)n3)cc2)CC1 [MPT0L146, 1-(6-((4-(4-ethylpiperazin-1-yl)phenyl)amino)-2-phenylpyrimidin-4-yl)-1-methyl-3-(2,4,6-trichloro-3,5-dimethoxyphenyl)urea]",94.3 % of control cells,88.0 % of control cells,100.8 % of control cells,29.7 % of control cells,83.4 % of control cells,–
"COc1ccc(-c2cc(N(C)C(=O)Nc3c(Cl)c(OC)c(Cl)c(OC)c3Cl)ncn2)cc1 [MPT0L153, 1-(6-(4-methoxyphenyl)pyrimidin-4-yl)-1-methyl-3-(2,4,6-trichloro-3,5-dimethoxyphenyl)urea]",93.6 % of control cells,91.3 % of control cells,63.8 % of control cells,43.0 % of control cells,76.2 % of control cells,–
"CCN1CCN(c2ccc(Nc3cc(N(C)C(=O)Nc4c(Cl)c(OC)c(Cl)c(OC)c4Cl)ncn3)cc2)CC1 [MPT0L090, 1-(6-((4-(4-ethylpiperazin-1-yl)phenyl)amino)pyrimidin-4-yl)-1-methyl-3-(2,4,6-trichloro-3,5-dimethoxyphenyl)urea]",47.1 % of control cells,72.6 % of control cells,52.6 % of control cells,12.7 % of control cells,27.5 % of control cells,–
"CCN1CCN(c2ccc(-c3cc(N(C)C(=O)Nc4c(Cl)c(OC)c(Cl)c(OC)c4Cl)ncn3)cc2)CC1 [MPT0L182, 1-(6-(4-(4-ethylpiperazin-1-yl)phenyl)pyrimidin-4-yl)-1-methyl-3-(2,4,6-trichloro-3,5-dimethoxyphenyl)urea]",96.3 % of control cells,78.3 % of control cells,95.6 % of control cells,8.6 % of control cells,63.2 % of control cells,–
